# Experimental data published in ChEMBL document CHEMBL5370528, “Synthesis-accessibility-oriented design of c-Jun N-terminal kinase 1 inhibitor” (Eur J Med Chem, 2023).
# The source made the active and inactive calls. The rule behind the calls is not given here.
# Columns and labels:
# [1] = molecular target: Mitogen-activated protein kinase 9 (Homo sapiens, UniProt P45984); assay: Inhibition of N-terminal GST-tagged recombinant full length human JNK2 expressed in baculovirus infected Sf9 cells using IPTTPITTTYFFFKKK as substrate at 0.1 uM incubated for 60 mins in the presence of ATP by ADP-Glo reagent based luminescence assay relative to control
# [2] = Apparent volume of distribution in Sprague-Dawley rat at 5 mg/kg, iv by HPLC-UV analysis; assay type: ADME, organism-based; conditions: in vivo, read-out: Vz
# [3] = MRT(0 to infinity) in Sprague-Dawley rat at 5 mg/kg, iv by HPLC-UV analysis; assay type: ADME, organism-based; conditions: in vivo
# Mus musculus [4] = assay: Anti-fibrotic activity in bleomycin-induced C57BL/6 mouse model of pulmonary fibrosis assessed as increase in respiratory function by measuring tidal volume at 25 to 75 mg/kg, po administered twice a day for 3 weeks by spirometry analysis; assay type: functional, organism-based; conditions: dose 25-75 mg/kg
# [5] = Apparent volume of distribution in Sprague-Dawley rat at 75 mg/kg, po by HPLC-UV analysis; assay type: ADME, organism-based; conditions: in vivo
# [6] = Half-life in Sprague-Dawley rat at 75 mg/kg, po by HPLC-UV analysis; assay type: ADME, organism-based; conditions: in vivo
# Mus musculus [7] = assay: Anti-fibrotic activity in bleomycin-induced C57BL/6 mouse model of pulmonary fibrosis assessed as reduction in mortality rate at 25 mg/kg, po administered twice a day for 3 weeks (reference value: 43%); assay type: functional; parameters: scale not given: the % may be the effect or the level left
# [8] = molecular target: Dual specificity mitogen-activated protein kinase kinase 2 (Homo sapiens) (UniProt P36507); assay: Inhibition of MAP2K2 (unknown origin) at 1 uM preincubated for 10 mins followed by substrate addition and measured after 60 mins in the presence of ATP by ADP-Glo reagent based luminescence assay relative to control; conditions: time 70.0 min
# [9] = molecular target: T1, c-Jun N-terminal kinase, JNK (Homo sapiens) (UniProt P45983+P53779+P45984); assay: Inhibition of JNK in human NCI-H1299 cells assessed as inhibition of anisomycin-activated c-Jun phosphorylation preincubated for 1 hrs followed by anisomycin activation for 1 hrs by Western blot analysis; assay type: cell-based; conditions: dose 2-50 µM, time 2.0 hrs
# [10] = molecular target: Cyclin-dependent kinase 2/cyclin E1 (Homo sapiens) (UniProt P24864+P24941); assay: Inhibition of CDK2/Cyclin E1 (unknown origin) at 1 uM preincubated for 10 mins followed by substrate addition and measured after 60 mins in the presence of ATP by ADP-Glo reagent based luminescence assay relative to control; assay type: protein-complex assay; conditions: time 70.0 min
# [11] = molecular target: CDK6/cyclin D1 (Homo sapiens) (UniProt P24385+Q00534); assay: Inhibition of CDK6/Cyclin D1 (unknown origin) at 1 uM preincubated for 10 mins followed by substrate addition and measured after 60 mins in the presence of ATP by ADP-Glo reagent based luminescence assay; assay type: protein-complex assay; conditions: time 70.0 min
# [12] = MRT (0 to infinity) in Sprague-Dawley rat at 75 mg/kg, po by HPLC-UV analysis; assay type: ADME, organism-based; conditions: in vivo
# Mus musculus [13] = assay: Anti-fibrotic activity in bleomycin-induced C57BL/6 mouse model of pulmonary fibrosis assessed as reduction in alveolar space collapse at 25 to 75 mg/kg, po administered twice a day for 3 weeks by Masson's trichome staining based analysis; assay type: functional, organism-based; conditions: dose 25-75 mg/kg
# [14] = molecular target: T1, c-Jun N-terminal kinase, JNK (Homo sapiens); assay: Inhibition of JNK in human BEAS-2B cells assessed as inhibition of anisomycin-activated c-Jun phosphorylation preincubated for 1 hrs followed by anisomycin activation for 1 hrs by Western blot analysis; assay type: cell-based; conditions: dose 2-50 µM, time 2.0 hrs
# [15] = Clearance in Sprague-Dawley rat at 5 mg/kg, iv by HPLC-UV analysis; assay type: ADME, organism-based; conditions: in vivo
# [16] = molecular target: T2, Dual specificity mitogen-activated protein kinase kinase 7 (Homo sapiens) (UniProt O14733); assay: Inhibition of MAP2K7 (unknown origin) at 1 uM preincubated for 10 mins followed by substrate addition and measured after 60 mins in the presence of ATP by ADP-Glo reagent based luminescence assay relative to control; conditions: time 70.0 min
# T2 sequence (whole entry): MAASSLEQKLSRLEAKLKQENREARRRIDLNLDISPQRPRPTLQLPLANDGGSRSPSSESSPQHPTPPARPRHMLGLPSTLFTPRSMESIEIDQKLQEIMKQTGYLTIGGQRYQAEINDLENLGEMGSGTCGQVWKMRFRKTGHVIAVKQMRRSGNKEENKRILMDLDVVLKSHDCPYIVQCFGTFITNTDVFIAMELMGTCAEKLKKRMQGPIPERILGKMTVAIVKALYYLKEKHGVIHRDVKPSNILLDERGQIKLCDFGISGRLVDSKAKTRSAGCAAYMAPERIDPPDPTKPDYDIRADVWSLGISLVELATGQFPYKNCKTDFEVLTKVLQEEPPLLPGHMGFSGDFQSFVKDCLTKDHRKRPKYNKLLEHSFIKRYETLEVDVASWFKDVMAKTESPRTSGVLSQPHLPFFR
# [17] = molecular target: Mitogen-activated protein kinase 10 (Homo sapiens, UniProt P53779); assay: Inhibition of N-terminal GST-tagged recombinant full length human JNK3 expressed in baculovirus infected Sf9 cells using IPTTPITTTYFFFKKK as substrate at 0.1 uM incubated for 60 mins in the presence of ATP by ADP-Glo reagent based luminescence assay relative to control
# Homo sapiens = species on record: Homo sapiens; assay: Selectivity ratio of IC50 for inhibition of N-terminal GST-tagged recombinant full length human JNK2 expressed in baculovirus infected Sf9 cells to IC50 for inhibition of N-terminal GST-tagged recombinant full length human JNK1 expressed in baculovirus infected Sf9 insect cells
# [18] = molecular target: Dual specificity mitogen-activated protein kinase kinase 1 (Homo sapiens) (UniProt Q02750); assay: Inhibition of MAP2K1 (unknown origin) at 1 uM preincubated for 10 mins followed by substrate addition and measured after 60 mins in the presence of ATP by ADP-Glo reagent based luminescence assay relative to control; conditions: time 70.0 min
# [19] = molecular target: Mitogen-activated protein kinase 7 (Homo sapiens) (UniProt Q13164); assay: Inhibition of ERK5 (unknown origin) at 1 uM preincubated for 10 mins followed by substrate addition and measured after 60 mins in the presence of ATP by ADP-Glo reagent based luminescence assay relative to control; conditions: time 70.0 min
# [20] = molecular target: Mitogen-activated protein kinase 11 (Homo sapiens) (UniProt Q15759); assay: Inhibition of p38beta (unknown origin) at 1 uM preincubated for 10 mins followed by substrate addition and measured after 60 mins in the presence of ATP by ADP-Glo reagent based luminescence assay relative to control; conditions: time 70.0 min
# Mus musculus [21] = assay: Anti-fibrotic activity in bleomycin-induced C57BL/6 mouse model of pulmonary fibrosis assessed as enhancement of lung respiratory function at 25 to 75 mg/kg, po administered twice a day for 3 weeks by spirometry analysis; assay type: functional, organism-based; conditions: dose 25-75 mg/kg
# Mus musculus [22] = assay: Anti-fibrotic activity in bleomycin-induced C57BL/6 mouse model of pulmonary fibrosis assessed as protection against BLM-induced death at 75 mg/kg, po administered twice a day for 3 weeks relative to control; assay type: functional
# [23] = molecular target: Mitogen-activated protein kinase 1 (Homo sapiens) (UniProt P28482); assay: Inhibition of ERK2 (unknown origin) at 1 uM preincubated for 10 mins followed by substrate addition and measured after 60 mins in the presence of ATP by ADP-Glo reagent based luminescence assay relative to control; conditions: time 70.0 min
# Mitogen-activated protein kinase 1 (Homo sapiens), sequence (P28482 whole entry): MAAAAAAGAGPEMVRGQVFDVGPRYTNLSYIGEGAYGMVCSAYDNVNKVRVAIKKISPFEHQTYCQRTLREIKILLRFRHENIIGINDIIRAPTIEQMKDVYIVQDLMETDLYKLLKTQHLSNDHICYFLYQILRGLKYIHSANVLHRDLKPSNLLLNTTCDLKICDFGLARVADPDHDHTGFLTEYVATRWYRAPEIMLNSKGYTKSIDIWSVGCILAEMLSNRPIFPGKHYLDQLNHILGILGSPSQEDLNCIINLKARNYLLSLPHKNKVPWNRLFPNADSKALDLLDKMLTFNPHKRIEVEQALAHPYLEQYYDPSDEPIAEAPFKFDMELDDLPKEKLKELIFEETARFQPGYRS
# Mitogen-activated protein kinase 9, sequence (P45984 whole entry, looked up): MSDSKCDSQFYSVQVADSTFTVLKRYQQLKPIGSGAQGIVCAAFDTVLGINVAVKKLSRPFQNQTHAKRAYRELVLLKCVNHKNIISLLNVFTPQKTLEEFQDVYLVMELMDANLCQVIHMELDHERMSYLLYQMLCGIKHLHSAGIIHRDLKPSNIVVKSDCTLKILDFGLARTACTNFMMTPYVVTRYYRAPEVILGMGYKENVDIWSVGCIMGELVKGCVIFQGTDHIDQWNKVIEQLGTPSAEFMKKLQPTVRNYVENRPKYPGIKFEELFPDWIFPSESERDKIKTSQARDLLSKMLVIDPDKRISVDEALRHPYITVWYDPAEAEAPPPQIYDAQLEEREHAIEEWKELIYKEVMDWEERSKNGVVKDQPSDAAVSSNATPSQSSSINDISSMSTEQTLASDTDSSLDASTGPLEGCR
# Dual specificity mitogen-activated protein kinase kinase 2 (Homo sapiens), sequence (P36507 whole entry): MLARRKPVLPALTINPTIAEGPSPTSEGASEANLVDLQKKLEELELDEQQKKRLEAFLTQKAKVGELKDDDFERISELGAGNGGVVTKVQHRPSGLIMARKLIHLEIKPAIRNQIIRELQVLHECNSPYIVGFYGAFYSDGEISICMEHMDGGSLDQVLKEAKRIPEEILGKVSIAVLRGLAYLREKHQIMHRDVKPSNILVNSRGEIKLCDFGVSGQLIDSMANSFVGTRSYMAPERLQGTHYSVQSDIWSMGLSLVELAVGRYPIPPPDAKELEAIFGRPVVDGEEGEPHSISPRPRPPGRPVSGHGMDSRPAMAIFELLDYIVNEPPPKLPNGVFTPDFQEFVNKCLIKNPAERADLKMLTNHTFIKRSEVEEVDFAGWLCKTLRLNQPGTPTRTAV
# Mitogen-activated protein kinase 11 (Homo sapiens), sequence (Q15759 whole entry): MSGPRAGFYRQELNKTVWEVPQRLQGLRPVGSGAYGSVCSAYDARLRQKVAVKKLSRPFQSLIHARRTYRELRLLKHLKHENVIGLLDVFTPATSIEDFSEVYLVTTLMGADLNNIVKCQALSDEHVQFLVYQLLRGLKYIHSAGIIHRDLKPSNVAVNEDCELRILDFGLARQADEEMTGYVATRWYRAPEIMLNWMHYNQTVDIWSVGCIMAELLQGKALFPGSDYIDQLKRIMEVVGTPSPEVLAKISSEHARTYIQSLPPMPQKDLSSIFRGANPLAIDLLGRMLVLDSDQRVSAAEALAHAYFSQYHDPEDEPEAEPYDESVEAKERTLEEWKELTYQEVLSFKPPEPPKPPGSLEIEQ
# Mitogen-activated protein kinase 7 (Homo sapiens), sequence (Q13164 2-816 limits assumed): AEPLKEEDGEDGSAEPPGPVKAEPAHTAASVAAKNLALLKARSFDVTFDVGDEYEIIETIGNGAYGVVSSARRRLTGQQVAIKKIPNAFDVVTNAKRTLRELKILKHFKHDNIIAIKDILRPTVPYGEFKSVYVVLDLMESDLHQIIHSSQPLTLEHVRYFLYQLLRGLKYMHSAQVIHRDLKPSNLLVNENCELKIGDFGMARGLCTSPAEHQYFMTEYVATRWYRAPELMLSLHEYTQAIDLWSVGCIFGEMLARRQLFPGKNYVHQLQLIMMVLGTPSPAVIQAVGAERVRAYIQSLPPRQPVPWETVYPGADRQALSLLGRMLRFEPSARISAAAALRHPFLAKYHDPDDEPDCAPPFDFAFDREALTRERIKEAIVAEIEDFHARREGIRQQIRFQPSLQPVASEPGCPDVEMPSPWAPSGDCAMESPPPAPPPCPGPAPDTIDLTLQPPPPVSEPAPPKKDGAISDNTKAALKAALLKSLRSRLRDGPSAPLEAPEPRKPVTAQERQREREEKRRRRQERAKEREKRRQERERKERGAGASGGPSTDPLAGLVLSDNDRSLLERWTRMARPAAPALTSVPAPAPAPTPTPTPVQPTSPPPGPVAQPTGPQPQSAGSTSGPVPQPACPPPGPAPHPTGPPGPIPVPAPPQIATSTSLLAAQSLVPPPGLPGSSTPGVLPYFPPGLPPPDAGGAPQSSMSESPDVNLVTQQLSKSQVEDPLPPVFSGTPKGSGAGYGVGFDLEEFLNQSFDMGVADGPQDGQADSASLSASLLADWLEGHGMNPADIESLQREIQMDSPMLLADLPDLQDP
# Dual specificity mitogen-activated protein kinase kinase 1 (Homo sapiens), sequence (Q02750 whole entry): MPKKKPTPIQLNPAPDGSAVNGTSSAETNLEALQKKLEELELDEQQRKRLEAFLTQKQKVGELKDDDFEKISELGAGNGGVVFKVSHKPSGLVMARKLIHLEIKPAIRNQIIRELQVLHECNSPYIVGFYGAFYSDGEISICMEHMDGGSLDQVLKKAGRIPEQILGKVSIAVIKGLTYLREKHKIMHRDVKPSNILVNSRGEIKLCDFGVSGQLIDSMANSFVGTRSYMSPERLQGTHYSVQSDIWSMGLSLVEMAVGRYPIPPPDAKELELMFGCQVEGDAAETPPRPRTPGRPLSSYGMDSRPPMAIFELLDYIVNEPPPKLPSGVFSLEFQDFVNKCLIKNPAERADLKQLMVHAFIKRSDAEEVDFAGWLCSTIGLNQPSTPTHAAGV
# Mitogen-activated protein kinase 10, sequence (P53779 whole entry): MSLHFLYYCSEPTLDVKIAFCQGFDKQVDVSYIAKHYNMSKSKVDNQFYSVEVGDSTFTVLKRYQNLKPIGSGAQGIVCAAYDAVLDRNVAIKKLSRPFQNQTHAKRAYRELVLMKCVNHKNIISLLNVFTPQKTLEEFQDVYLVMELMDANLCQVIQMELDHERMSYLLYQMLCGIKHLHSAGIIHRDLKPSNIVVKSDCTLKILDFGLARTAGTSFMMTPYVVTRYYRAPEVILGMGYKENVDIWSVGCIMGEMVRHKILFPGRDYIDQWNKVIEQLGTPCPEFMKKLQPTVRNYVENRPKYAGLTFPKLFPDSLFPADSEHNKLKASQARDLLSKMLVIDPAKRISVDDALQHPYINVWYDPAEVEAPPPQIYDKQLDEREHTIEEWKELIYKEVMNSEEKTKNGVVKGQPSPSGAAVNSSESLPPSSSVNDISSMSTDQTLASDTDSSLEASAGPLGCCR
smiles,measurement,setting,value
CC(C)(C)CNc1ncc(Br)c(Nc2ccccc2C(N)=O)n1,inhibition,[1],43%
same,Vd,[2],20.3 L/kg
same,MRT inf,[3],2.85 h
same,Activity,Mus musculus [4],Active
same,Vz,[5],230.54 L/kg
same,half-life,[6],4.22 h
same,Activity,Mus musculus [7],14%
same,inhibition,[8],4.96%
same,inhibition,[9],Dose-Dependent Effect
same,inhibition,[10],60.3%
same,inhibition,[11],17%
same,MRT inf,[12],5.45 h
same,Activity,Mus musculus [13],Active
same,inhibition,[14],Dose-Dependent Effect
same,clearance,[15],131 mL/min/kg
same,inhibition,[16],8.7%
same,inhibition,[17],78.5%
same,Ratio IC50,Homo sapiens,3.36
same,inhibition,[18],2.35%
same,inhibition,[19],13.5%
same,inhibition,[20],9.6%
same,Activity,Mus musculus [21],Active
same,Activity,Mus musculus [22],100%
same,inhibition,[23],18.7%
